Where two headings read alike, the source gives them in different places.
Key:
[1] = test system: chimeric replicon with genotype 4a NS5B; test: microbe, parasite or virus in culture; type: cell-based, HCV genotype 4a; conditions: Hepatitis C virus, read-out: 4a chimera 5% FBS EC50
[2] = test system: HCV 1a-H77 C316Y mutant subgenomic replicon; test: Stable replicon cell culture assay (luciferase), 1a-H77-C316Y mutant; type: cell-based, HCV genotype 1a; conditions: for EC50: Hepatitis C virus, read-out: Stable Replicon 1a H77-C316Y 5% FBS EC50; for Stable Replicon Fold Resistance C316Y/1a: ratio of stable replicon EC50s, C316Y / 1a H77
[3] = molecular target: T1, HCV NS5B polymerase 1b Rice (Hepatitis C virus genotype 1b, UniProt Q9WMX2); test: HCV NS5B polymerase enzymatic inhibition assay, strain 1b Rice; type: biochemical, HCV genotype 1b; conditions: enzyme
T1 construct: six-histidine tag; made in house; host or cells: E. coli
Experimental: Purified HCV NS5B polymerase enzymes were used for polymerase inhibition assays. All recombinant HCV polymerases contained the first 570 amino acids of the 591 amino acid native protein sequence and a six-histidine tag at the N-terminus or C-terminus to facilitate purification by affinity chromatography. The DNA nucleotide sequence for the HCV polymerase 1b BK strain was codon optimized for expression in E. coli. A synthetic gene was prepared from a series of overlapping oligonucleotides that were filled in using a DNA polymerase and amplified by PCR. The patient isolate HCV polymerases were cloned by RT-PCR methods using HCV RNA extracted from the serum of infected subjects obtained from ProMedDx and BioCollections (genotypes 2a, 2b, 3a, and 4a). Laboratory strains were cloned from plasmid DNA (1a-H77 or 1a-H77-C316Y) or from existing replicon cells (1b Rice). In all cases the amplified DNA was cloned into a protein expression vector (typically a pET vector from Novagen) and then multiple clones were sequenced to identify one whose NS5B sequence agreed with the population sequence. This sequence-confirmed clone was then transfected into E. coli for protein expression and purification. E. coli cultures were grown to a maximum optical density (OD) of 2-3 and then induced with 0.4 mM isopropyl beta-D-thiogalactopyranoside (IPTG) and grown for 20 hours at 20° C.
Proteins were purified using nickel affinity chromatography, and additional column steps were added including, ion exchange, size exclusion, hydrophobic ion, and poly-U affinity chromatography, as needed, depending on the sample being purified. The template RNA used in the polymerase enzymatic assay was a 2.1 kb construct that corresponds to the 3′-end of an HCV genotype 1b negative strand RNA.
The reaction was initiated by the addition of 20 μM CTP, 20 μM ATP, 0.284 μM (0.5 μCi) of 5,6-[^3H] UTP, 5 nM template RNA and 0.1 U/μL RNase inhibitor (RNasin, Promega), and allowed to proceed for three hours at 30° C. The final reaction volume was 50 μL. The reaction was terminated by the addition of 50 uL of 4 mM spermine in 10 mM Tris-HCl, pH 7.5, 1 mM EDTA. The quenched reaction was allowed to incubate for at least 15 minutes at room temperature, and then the precipitated RNA was captured by filtration through a glass fiber filter (GF/B, Millipore) in a 96 well format. The filter plate was washed five times with 200 μL of 2 mM spermine, 10 mM Tris-HCl, pH 8.0, 1 mM EDTA, and two times with ethanol. After drying thoroughly in air, 30 μL of Microscint-20 scintillation cocktail (Perkin Elmer) was added to each well, and the retained cpm were determined by scintillation counting. IC50 values were determined by nonlinear regression.
% Inhibition=100*[[I]/([I]+[IC50])] equation 1
V=kcat[S]/2(Km+[S])*(sqrt((IC50+I−E)̂2+(4*IC50*E))−(IC50+I−E)) equation 2

[4] = test system: chimeric replicon with 2a-J6CF-derived NS5B; test: microbe, parasite or virus in culture; type: cell-based, HCV genotype 2a; conditions: Hepatitis C virus, read-out: 2a chimera 5% FBS EC50
[5] = test system: chimeric replicon with genotype 3a NS5B; test: microbe, parasite or virus in culture; type: cell-based, HCV genotype 3a; conditions: Hepatitis C virus, read-out: 3a chimera 5% FBS EC50
[6] = test system: HCV 1a-H77 subgenomic replicon; test: microbe, parasite or virus in culture; type: cell-based, HCV genotype 1a; conditions: Hepatitis C virus, stable replicon
[7] = test system: HCV 1a-H77 transient subgenomic replicon in Huh-7 derived cell line; test: microbe, parasite or virus in culture; type: cell-based, HCV genotype 1a; conditions: Hepatitis C virus, Huh-7; transient replicon, 5% FBS; read-out: Transient Replicon 1a H77 5% FBS EC50
Outline: (§1)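 Transient format: T7-transcribed replicon RNA lacking Neo, electroporated into Huh-7-derived cells (5×10^3/well), input RNA checked by luciferase at 4 h. Three-fold compound dilution series, 0.5% DMSO, 4 days at 37° C; EC50 from luciferase signal in lysed cells.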

[8] = test system: HCV 1a-H77-C316Y transient subgenomic replicon in Huh-7 derived cell line; test: microbe, parasite or virus in culture; type: cell-based, HCV genotype 1a; conditions: for EC50: Hepatitis C virus, Huh-7, read-out: Transient Replicon 1a H77-C316Y 5% FBS EC50; for Transient Replicon Fold Resistance C316Y/1a: ratio of transient replicon EC50s, C316Y / 1a H77
Outline: as §1

[9] = molecular target: T2, HCV NS5B polymerase 1b BK strain (Hepatitis C virus genotype 1b, UniProt P26663); test: HCV NS5B polymerase enzymatic inhibition assay, strain 1b BK; type: biochemical; conditions: enzyme, strain 1b BK; read-out: HCV Polymerase Strain 1b BK IC50
T2 construct: six-histidine tag; made in house; host or cells: E. coli
T2 sequence (P26663 2420-2989): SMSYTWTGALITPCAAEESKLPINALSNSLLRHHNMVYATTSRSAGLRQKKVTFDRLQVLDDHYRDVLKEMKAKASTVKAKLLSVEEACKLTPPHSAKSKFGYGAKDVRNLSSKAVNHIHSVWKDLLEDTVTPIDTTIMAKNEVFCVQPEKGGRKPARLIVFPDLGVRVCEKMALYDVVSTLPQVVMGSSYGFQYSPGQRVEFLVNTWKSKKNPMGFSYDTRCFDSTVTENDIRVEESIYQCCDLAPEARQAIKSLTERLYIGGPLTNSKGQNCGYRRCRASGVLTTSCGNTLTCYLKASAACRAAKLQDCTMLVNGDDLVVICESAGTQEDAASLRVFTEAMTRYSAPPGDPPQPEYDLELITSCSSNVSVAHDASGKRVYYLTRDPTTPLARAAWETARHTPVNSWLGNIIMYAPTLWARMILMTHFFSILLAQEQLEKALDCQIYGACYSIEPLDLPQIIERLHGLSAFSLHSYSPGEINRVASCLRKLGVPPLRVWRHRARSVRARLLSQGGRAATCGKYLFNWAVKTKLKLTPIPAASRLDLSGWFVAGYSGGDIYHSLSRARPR
Outline: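 Incorporation of [3H]UTP (0.284 μM), alongside 20 μM each CTP and ATP, into RNA copied from a 5 nM 2.1 kb genotype 1b negative-strand template was measured after 3 h at 30° C using purified His-tagged NS5B truncated at residue 570. Product was spermine-precipitated, filtered and scintillation-counted; nonlinear regression gave IC50.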

[10] = test system: chimeric replicon with genotype 2b NS5B; test: microbe, parasite or virus in culture; type: cell-based, HCV genotype 2b; conditions: Hepatitis C virus, read-out: 2b chimera 5% FBS EC50
[11] = 5% FBS, absence of human plasma, read-out: Stable Replicon 1a H77 5% FBS EC50
[12] = strain 1a H77, 5% FBS + 40% human plasma, read-out: 1a H77 5% FBS + 40% Human Plasma EC50
[13] = strain 1a H77, 5% FBS, no human plasma, read-out: 1a H77 5% FBS EC50
[14] = strain 1a H77, 5% FBS, read-out: 1a H77 5% FBS EC50

Row | Structure (SMILES) | EC50 [1] [µM] | EC50 [2] [µM] | Stable Replicon Fold Resistance C316Y/1a [2] [fold] | IC50 [3] [µM] | EC50 [4] [µM] | EC50 [5] [µM] | EC50 [6, 11] [µM] | EC50 [6, 12] [µM] | EC50 [6, 13] [µM] | EC50 [6, 14] [µM] | EC50 [7] [µM] | EC50 [8] [µM] | Transient Replicon Fold Resistance C316Y/1a [8] [fold] | IC50 [9] [µM] | EC50 [10] [µM]
1 | CS(=O)(=O)N(CCO)c1cc2oc(-c3ccc(F)cc3)c(-c3ncc[nH]3)c2cc1C1CC1 [Example 109, N-[5-cyclopropyl-2-(4-fluorophenyl)-3-(1H-imidazol-2-yl)-1-benzofuran-6-yl]-N-(2-hydroxyethyl)methanesulfonamide] | 0.167 | 0.467 | 23.6 | 0.0169 | 0.115 | 0.0068 | 0.0198 | 0.42 | 0.0198 | 0.0198 | 0.038 | 1.3 | 34 | 0.0617 | 0.12
2 | CS(=O)(=O)N(CCO)c1cc2oc(-c3ccc(F)cc3)c(C3=NOCCN3)c2cc1C1CC1 [Example 136, N-[5-cyclopropyl-3-(5,6-dihydro-4H-1,2,4-oxadiazin-3-yl)-2-(4-fluorophenyl)-1-benzofuran-6-yl]-N-(2-hydroxyethyl)methanesulfonamide] | 0.291 | 0.561 | 42.0 | 0.057 | 0.204 | 0.042 | 0.0266 | 0.347 | 0.0266 | 0.0266 | 0.0324 | 0.679 | 21 | 0.2 | 0.426
3 | CCCC/C=C/c1ccc(-c2oc3cc(N(CCCCS(C)(=O)=O)S(C)(=O)=O)c(C4CC4)cc3c2-c2ncc[nH]2)cc1 [Example 168, N-[5-cyclopropyl-2-{4-[(1E)-hex-1-en-1-yl]phenyl}-3-(1H-imidazol-2-yl)-1-benzofuran-6-yl]-N-[4-(methylsulfonyl)butyl]methanesulfonamide] | 0.0144 | 0.0176 | 9.72 | 0.0049 | 0.006 | 0.0127 | 0.0018 | 0.0184 | 0.0018 | 0.0018 | 0.0006 | 0.0144 | 24 | 0.0392 | 0.0133
4 | CS(=O)(=O)CCCCN(c1cc2oc(-c3ccc(Nc4ccccc4)cc3)c(-c3ncc[nH]3)c2cc1C1CC1)S(C)(=O)=O [Example 169, N-[2-(4-anilinophenyl)-5-cyclopropyl-3-(1H-imidazol-2-yl)-1-benzofuran-6-yl]-N-[4-(methylsulfonyl)butyl]methanesulfonamide] | 0.0043 | 0.0114 | 5.33 | 0.0094 | 0.0169 | 0.015 | 0.0021 | 0.0148 | 0.0021 | 0.00214 | 0.0006 | 0.0041 | 6 | 0.0391 | 0.0123

— patent US20160355530A1, “HEPATITIS C INHIBITORS AND USES THEREOF” (AbbVie Inc., priority 2010, published 2016)
